Measurements from the supplement of paper PMC13380429.

Tests used:
Details in all cases: 72 h
Caco-2 [1] = assay: relative viability EC50 (midpoint between 100% and the lowest measured viability); higher = less toxic
Vero E6 [2] = assay: as above
U2OS [3] = assay: as above
HepG2 [4] = assay: as above
Caco-2 [5] = assay: drug sensitivity score (DSS) for viability; higher = more toxic; extreme values may be limits of the assay
Vero E6 [6] = assay: as above
U2OS [7] = assay: as above
HepG2 [8] = assay: as above
Caco-2 [9] = assay: cell viability relative to DMSO; higher = less toxic
Vero E6 [10] = assay: as above
U2OS [11] = assay: as above
HepG2 [12] = assay: as above
Calu-3 [13] = assay: relative viability EC50 (midpoint between 100% and the lowest measured viability); higher = less toxic
Calu-3 [14] = assay: drug sensitivity score (DSS) for viability; higher = more toxic; extreme values may be limits of the assay
Calu-3 [15] = assay: cell viability relative to DMSO; higher = less toxic

SMILES | relative viability EC50 (Caco-2 [1]) [µM] | relative viability EC50 (Vero E6 [2]) [µM] | relative viability EC50 (U2OS [3]) [µM] | relative viability EC50 (HepG2 [4]) [µM] | drug sensitivity score (Caco-2 [5]) | drug sensitivity score (Vero E6 [6]) | drug sensitivity score (U2OS [7]) | drug sensitivity score (HepG2 [8]) | cell viability (Caco-2 [9]; 1 nM) [%] | cell viability (Caco-2 [9]; 10 nM) [%] | cell viability (Caco-2 [9]; 100 nM) [%] | cell viability (Caco-2 [9]; 1000 nM) [%] | cell viability (Caco-2 [9]; 10000 nM) [%] | cell viability (Vero E6 [10]; 1 nM) [%] | cell viability (Vero E6 [10]; 10 nM) [%] | cell viability (Vero E6 [10]; 100 nM) [%] | cell viability (Vero E6 [10]; 1000 nM) [%] | cell viability (Vero E6 [10]; 10000 nM) [%] | cell viability (U2OS [11]; 1 nM) [%] | cell viability (U2OS [11]; 10 nM) [%] | cell viability (U2OS [11]; 100 nM) [%] | cell viability (U2OS [11]; 1000 nM) [%] | cell viability (U2OS [11]; 10000 nM) [%] | cell viability (HepG2 [12]; 1 nM) [%] | cell viability (HepG2 [12]; 10 nM) [%] | cell viability (HepG2 [12]; 100 nM) [%] | cell viability (HepG2 [12]; 1000 nM) [%] | cell viability (HepG2 [12]; 10000 nM) [%] | relative viability EC50 (Calu-3 [13]) [µM] | drug sensitivity score (Calu-3 [14]) | cell viability (Calu-3 [15]; 1 nM) [%] | cell viability (Calu-3 [15]; 10 nM) [%] | cell viability (Calu-3 [15]; 100 nM) [%] | cell viability (Calu-3 [15]; 1000 nM) [%] | cell viability (Calu-3 [15]; 10000 nM) [%]
CC(=O)N[C@H](Cc1ccc2ccccc2c1)C(=O)N[C@H](Cc1ccc(Cl)cc1)C(=O)N[C@H](Cc1cccnc1)C(=O)N[C@@H](CO)C(=O)N[C@@H](Cc1ccc(O)cc1)C(=O)N[C@H](CCCNC(N)=O)C(=O)N[C@@H](CC(C)C)C(=O)N[C@@H](CCCNC(=N)N)C(=O)N1CCC[C@H]1C(=O)N[C@H](C)C(N)=O [cetrorelix] | > 10 | > 10 | > 10 | > 10 | 0 | 0 | 0 | 0.6 | 117 | 95.5 | 110 | 114 | 104 | 105 | 101 | 105 | 99.3 | 90.3 | 102 | 93.6 | 96.9 | 95.1 | 100 | 102 | 93.7 | 101 | 97.8 | 83.1 |  |  |  |  |  |  | 
Cc1ccc(/C=N/NC(=O)c2ccccc2Oc2ccccc2)o1 | > 10 | > 10 | > 10 | > 10 | 0.1 | 0 | 0 | 0 | 96 | 99.6 | 100 | 95.2 | 88.7 | 97 | 101 | 98.9 | 95.6 | 93.7 | 106 | 97.3 | 98.1 | 93 | 98.6 | 103 | 103 | 91.7 | 94.2 | 102 |  |  |  |  |  |  | 
COc1cc(NS(=O)(=O)c2ccc(N)cc2)ncn1 [sulfamonomethoxine] | > 10 | > 10 | > 10 | > 10 | 0 | 0 | 0 | 0 | 92.6 | 102 | 95.4 | 98.4 | 98.7 | 106 | 106 | 106 | 104 | 97 | 101 | 99.7 | 101 | 102 | 100 | 108 | 104 | 115 | 107 | 90.9 |  |  |  |  |  |  | 
NC(=O)c1nc(F)cnc1O [Favipiravir] |  |  |  | > 10 |  |  |  | 0 |  |  |  |  |  |  |  |  |  |  |  |  |  |  |  | 104 | 102 | 109 | 91.8 | 98.2 | > 10 | 0 | 101 | 93.2 | 92.5 | 94.6 | 107
